Source: publication doi:10.1101/2023.06.29.547052v1 (biorxiv, 2023)

Biological target: BSA (Bos taurus, UniProt P02769)
Assay: biochemical

Chain of BSA (P02769 25-607): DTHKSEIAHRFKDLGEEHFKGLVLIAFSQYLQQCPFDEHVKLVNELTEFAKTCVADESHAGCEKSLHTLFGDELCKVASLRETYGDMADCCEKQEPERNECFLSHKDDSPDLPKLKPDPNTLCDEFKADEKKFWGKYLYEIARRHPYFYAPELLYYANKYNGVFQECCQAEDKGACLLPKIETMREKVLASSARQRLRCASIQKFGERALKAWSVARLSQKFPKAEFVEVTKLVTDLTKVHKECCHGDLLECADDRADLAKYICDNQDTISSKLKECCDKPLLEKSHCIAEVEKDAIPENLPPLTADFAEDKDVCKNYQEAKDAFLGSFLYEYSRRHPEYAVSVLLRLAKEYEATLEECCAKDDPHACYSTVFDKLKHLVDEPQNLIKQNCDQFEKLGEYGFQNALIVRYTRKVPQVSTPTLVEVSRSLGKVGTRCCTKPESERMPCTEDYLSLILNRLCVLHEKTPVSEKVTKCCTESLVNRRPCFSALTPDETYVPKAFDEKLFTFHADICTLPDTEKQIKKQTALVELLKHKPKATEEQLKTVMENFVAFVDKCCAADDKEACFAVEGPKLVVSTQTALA

Kd: 1780 ± 20 nM
SMILES: C=CC1=C(C)C2=Cc3c(C=C)c(C)c4[n]3[Fe]([Cl])[n]3c(c(C)c(CCC(=O)O)c3=CC3=NC(=C4)C(C)=C3CCC(=O)O)=CC1=N2 [hemin]
